Measured values as given in patent publication US9458145B2, “Benzimidazole derivatives as bromodomain inhibitors” (Gilead Sciences, Inc., priority 2013, dated 2016).
Like-named read-outs stand apart in the source and are kept apart here.

How the values were obtained:
BRD4-1 = BRD4-1 (Homo sapiens (Human), UniProt O60885); test: BRD4-1 Ligand KI assay (TR-FRET, Cy5 labeled ligand displacement); assay type: binding
Procedure: (§1) BRD4-1 Ligand KI and BRD4-2 Ligand KI Assays
(§2) Binding of the two tandem bromodomains, BRD4-I and BRD4-2, to a Cy5 labeled probe/ligand (Compound 1020-501) were measured using a homogeneous time resolved fluorescence resonance energy transfer (TR-FRET) assay.
(§3) The labeled ligand specifically binds BRD4-1 and BRD4-2 and can be displaced by a small molecule inhibitor that shares a similar or overlapping binding site. BRD4-I and BRD4-2 were expressed and purified from Escherichia coli as N-terminal His6, tagged proteins. A Eu-cryptate labeled anti-His antibody (Perkin Elmer) was used to specifically bind BRD4. […] Assays were performed in 50 mM Hepes (pH 7.5), 150 mM NaCl, 0.1 mg/ml BSA, 0.01% (v/v) Brij, 0.5% (v/v) DMSO and 10 nM labeled ligand at the following concentrations for each BRD4 isoform: 2 nM BRD4-1 and 0.5 nM BRD4-2. After an assay reaction time of 60 minutes at 25° C., binding was measured with 2 nM Eu-cryptate labeled anti-His antibody. TR-FRET signal was detected on an Envision plate reader (Ex: 320 nm; Em: 615/665 nm; 100 μs delay and 200 μs read window). […] All IC50 values represent geometric mean values of a minimum of four determinations. The IC50 values were converted to Ki values (dissociation constant for BRD4-inhibitor complex) using the Cheng and Prusoff equation for a competitive inhibitor mode of action. These assays generally produced results within 3-fold of the reported mean.

BRD4-2 = BRD4-2 (Homo sapiens (Human), UniProt O60885); test: BRD4-2 Ligand KI assay (TR-FRET, Cy5 labeled ligand displacement); assay type: binding
Procedure: as §1, §2, §3

[1] = 2 nM BRD4-1, 10 nM labeled ligand, IC50 converted to Ki by Cheng and Prusoff
[2] = 0.5 nM BRD4-2, 10 nM labeled ligand, IC50 converted to Ki by Cheng and Prusoff

| IC50 (BRD4-1) [nM] | IC50 (BRD4-2) [nM] | SMILES | IC50 (BRD4-1; [1]) [nM] | IC50 (BRD4-2; [2]) [nM] |
| --- | --- | --- | --- | --- |
| – | – | Cc1noc(C)c1-c1cc(C(O)(c2cccnn2)C2CCCO2)c2nc(C3CC3)[nH]c2c1 (single isomer, unassigned) [Compound 1020-289, (2-cyclopropyl-6-(3,5-dimethylisoxazol-4-yl)-1H-benzo[d]imidazol-4-yl)(pyridazin-3-yl)(tetrahydrofuran-2-yl)methanol] | 2 | 2 |
| – | – | Cc1noc(C)c1-c1cc(C(O)(c2cccnn2)C2CCC(C)(C)O2)c2nc(C3CC3)[nH]c2c1 (single isomer, unassigned) [Compound 1020-298, (2-cyclopropyl-6-(3,5-dimethylisoxazol-4-yl)-1H-benzo[d]imidazol-4-yl)(5,5-dimethyltetrahydrofuran-2-yl)(pyridazin-3-yl)methanol] | 5.4 | 3.6 |
| 5.9 | 6 | Cc1noc(C)c1-c1cc(C(O)(c2ccccn2)c2ncccn2)c2nc(C3CC3)[nH]c2c1 (racemic) [Compound 1020-239, (R) and (S)-(2-cyclopropyl-6-(3,5-dimethylisoxazol-4-yl)-1H-benzo[d]imidazol-4-yl)(pyridin-2-yl)(pyrimidin-2-yl)methanol] | – | – |
